Laboratory results: patent publication EP0657176B1, “Composition containing a water-insoluble or slightly water-soluble compound with enhanced water-solubility” (priority 1993, dated 1995)
≈ marks a conversion by molar mass, not a printed value. Where two headings read alike, the source gives them in different places.

What was measured:
[1] = cited from earlier work
[2] = tested on: rats; test: Toxicity in rats, intravenous administration every day for 2 weeks (Experiment 3); type: in vivo
Procedure: Four male rats were used. β-CyD-G2-COOH was dissolved in sterilized water. The solution was intravenously administered to rats in daily doses of 1 ml/kg, 3 ml/kg, and 10 ml/kg (containing β-CyD-G2-COOH in amounts of 100 mg/kg, 300 mg/kg, and 1000 mg/kg, respectively) every day for 2 weeks.
As a control, the toxicity of β-CyD-G2 was studied according to the same manner.

[3] = Water-solubility of the antineoplastic agent alone or combined with β-CyD-G2-COONa or β-CyD (Example 1, HPLC); type: physicochemical; details: 6-O-(N-chloroacetylcarbamoyl)fumagillol in water, with β-CyD-G2-COONa or β-CyD 1:2 (mol ratio), lyophilized powder 100 mg + water 1 ml, alone: shaken at 25 °C for 4 hours, 0.22 µm filter, read-out: solubilities of the antineoplastic agent
Procedure: The antineoplastic agent 6-O-(N-chloroacetylcarbamoyl)fumagillol (100 mg) was dissolved in ethanol (4 ml). […] The aqueous solution was added to the ethanol solution and mixed with it with stirring. The resulting solution was lyophilized in vacuo to give powder. Water (1 ml) was added to the powder (100 mg) to obtain a homogeneous aqueous solution, i.e., a composition of the present invention.
On the other hand, the antineoplastic agent alone was added to water, and the mixture was vigorously shaken at 25 °C for 4 hours and filtered through a membrane filter of 0.22 µm.
The antineoplastic agent in the above homogeneous aqueous solution and filtrate was determined by high performance liquid chromatography (HPLC). As a result, the solubilities in Table 1 were obtained.

[4] = Water-solubility of the antineoplastic agent alone or combined with α-CyD-G2-COONa or α-CyD (Example 2, HPLC); type: physicochemical; details: 6-O-(N-chloroacetylcarbamoyl)fumagillol in water, with α-CyD-G2-COONa or α-CyD 1:2 (mol ratio), lyophilized powder 100 mg + water 1 ml, alone: shaken at 25 °C for 4 hours, 0.22 µm filter, read-out: solubilities of the antineoplastic agent
Procedure: (§1) The aqueous solution was added to the ethanol solution and mixed with it with stirring. The resulting solution was lyophilized in vacuo to give powder. Water (1 ml) was added to the powder (100 mg) to obtain a homogeneous aqueous solution, i.e., a composition of the present invention. On the other hand, the antineoplastic agent alone was added to water, and the mixture was vigorously shaken at 25 °C for 4 hours and filtered through a membrane filter of 0.22 µm.
The antineoplastic agent in the above homogeneous aqueous solution and filtrate was determined by high performance liquid chromatography (HPLC). As a result, the solubilities in Table 2 were obtained.

[5] = Water-solubility of the cephalosporin antibiotic alone or combined with β-CyD-G2-COONa or β-CyD (Example 3, HPLC); type: physicochemical; details: cephalosporin antibiotic (free form) in water, with β-CyD-G2-COONa or β-CyD 1:2 (mol ratio), lyophilized powder 100 mg + water 1 ml, alone: shaken at 25 °C for 8 hours, read-out: solubilities of the antibiotic
Procedure: as §1, with “antibiotic” for “antineoplastic agent”, “8” for “4”
The antibiotic in the above homogeneous aqueous solution and filtrate was determined by high performance liquid chromatography (HPLC). As a result, the solubilities in Table 3 were obtained.

[6] = tested on: Rabbit erythrocytes; test: Hemolytic effect on rabbit erythrocytes (Experiment 1, Fig. 1); details: 0.25% rabbit erythrocyte suspension, 10 mM isotonic phosphate buffer (pH 7.4), 1 to 40 mM, 37°C, 30 minutes
Procedure: (§4) To this was added sodium 6-O-cyclomaltoheptaosyl-(6→1)-α-D-glucosyl-(4→1)-O-α-D-glucuronate (β-CyD-G2-COONa) was added so that the concentration thereof became 1 to 40 mM. The mixture was shaken at 37°C for 30 minutes and then centrifuged to separate the supernatant. […] The amount of hemoglobin bursted in water instead of isotonic phosphate buffer was used as a standard (100%), and the relative ratio to it was indicated as a hemolytic ratio.
(§5) Further, according to the same manner as that described above except using β-cyclodextrin (β-CyD) instead of β-CyD-G2-COONa, the hemolytic ratio was determined.
(§6) (Control: β-cylodextrin 4 mM, 6-O-α-D-glucosyl-(1→4)-α-D-glucosyl-β-cyclodextrin 8 mM)

[7] = biological target: T1, β-Glucuronidase (Bos taurus, UniProt A3KMY8); test: Stability to enzymatic treatment with β-glucuronidase (Experiment 4, Fig. 6); type: in vitro ADME, Calf liver; details: 10 mM aqueous cyclodextrin, β-glucuronidase 700 unit/ml, 37°C, 0 to 120 minutes; compared with 6-O-α-maltosyl-β-cyclodextrin
T1 construct: purchased; host or cells: calf liver (per earlier reading)
T1 sequence (A3KMY8 1-652): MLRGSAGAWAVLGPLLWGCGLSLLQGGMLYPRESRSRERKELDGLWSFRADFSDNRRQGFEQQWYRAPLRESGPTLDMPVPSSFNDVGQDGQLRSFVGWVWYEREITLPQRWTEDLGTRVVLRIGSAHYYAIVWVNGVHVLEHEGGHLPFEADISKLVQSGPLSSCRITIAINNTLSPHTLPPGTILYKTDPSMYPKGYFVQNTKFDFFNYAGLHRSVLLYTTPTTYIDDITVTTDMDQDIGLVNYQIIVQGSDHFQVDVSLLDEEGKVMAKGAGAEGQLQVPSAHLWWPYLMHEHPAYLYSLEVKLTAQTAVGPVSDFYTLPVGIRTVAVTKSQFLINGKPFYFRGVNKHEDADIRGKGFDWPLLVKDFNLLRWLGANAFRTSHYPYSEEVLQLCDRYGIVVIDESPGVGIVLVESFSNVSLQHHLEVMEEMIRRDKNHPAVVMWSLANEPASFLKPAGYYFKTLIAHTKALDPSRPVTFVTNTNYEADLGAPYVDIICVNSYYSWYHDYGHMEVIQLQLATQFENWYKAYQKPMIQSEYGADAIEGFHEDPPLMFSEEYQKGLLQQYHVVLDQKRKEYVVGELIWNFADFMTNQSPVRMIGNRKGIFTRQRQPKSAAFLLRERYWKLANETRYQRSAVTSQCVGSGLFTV
Procedure: (§2) As a control, 6-O-α-maltosyl-β-cyclodextrin was used. Test method: Each of prescribed amounts of the following enzymes was added to a 10 mM aqueous solution of cyclodextrin to be tested. The mixture was allowed to stand in a water bath at 37°C. 50 µl of each mixture was sampled, and the enzyme was inactivated by heating it at 100°C for 15 minutes, centrifuged at 15,000 rpm for 5 minutes, filtered through Millipore USY-1 (differential molecular weight: 10,000), diluted 10 times and subjected to HPLC analysis. HPLC analytic conditions: • Column; NH2P-50 (Asahipak) • Mobile phase; CH3CN:H2O=48:52 to which 0.005M PIC reagent was added. • Flow rate; 0.8 ml/minute • Detection; RI The ratio of the remaining cyclodextrin at 0 to 120 minutes was determined from the above HPLC analysis of each sample.
(§3) Each unit is as described in the instruction book of the enzyme obtained from above market. Results: Changes of the ratio of remaining 6-O-α-D-glucuronyl(1→4)-α-D-glucosyl-β-cyclodextrin sodium salt (branched cyclodextrin-carboxylic acid salt) and 6-O-α-maltosyl-β-cyclodextrin (branched cyclodextrin) with the passage of time are shown in Figures 3 to 6. In the figures, black triangles represent the branched cyclodextrin-carboxylic acid salt, and black dots represent the branched cyclodextrin.

[8] = biological target: T2, Glucoamylase (Rhizopus oryzae, UniProt P07683); type: in vitro ADME, Rhizopus sp.; details: 10 mM aqueous cyclodextrin, glucoamylase 2 unit/ml, 37°C, 0 to 120 minutes; compared with 6-O-α-maltosyl-β-cyclodextrin
T2 construct: purchased
Procedure: as §2, §3

[9] = tested on: Rabbit erythrocytes; details: phosphate buffer, pH 7.4
Procedure: as §4, §5, §6

[10] = water
[11] = tested on: Human erythrocytes; test: Hemolytic effect on human erythrocytes (Experiment 2, Fig. 2); type: cell-based; details: 0.1M isotonic phosphate buffer (pH 7.4), 5 to 30 mM, 37°C, 30 minutes
Procedure: Human erythrocytes were added to 0.1M isotonic phosphate buffer (pH 7.4) to prepare a 20% suspension. The 20% erythrocyte suspension (100 µl) was added to an isotonic buffer (4 ml) containing β-CyD-G2-COONa in a concentration of 5 to 30 mM.
The results are in Figure 2 together with the above results for comparison.

[12] = Hemolytic effect on rabbit erythrocytes (Experiment 1, Fig. 1); details: rabbit, erythrocytes, phosphate buffer, pH 7.4
Procedure: as §4, §5, §6

[13] = Stability to acid: half-life in 0.1N HCl solution
[14] = Water-solubility of the cyclodextrins themselves
[15] = biological target: T3, Pullulanase (Klebsiella pneumoniae, UniProt P07206); test: Stability to enzymatic treatment with pullulanase (Experiment 4, Fig. 5); type: in vitro ADME; details: 10 mM aqueous cyclodextrin, pullulanase 10 unit/ml, 37°C, 0 to 120 minutes; read-out: decomposed in the enzymatic treatment with pullulanase
T3 construct: purchased
T3 sequence (P07206 20-1090): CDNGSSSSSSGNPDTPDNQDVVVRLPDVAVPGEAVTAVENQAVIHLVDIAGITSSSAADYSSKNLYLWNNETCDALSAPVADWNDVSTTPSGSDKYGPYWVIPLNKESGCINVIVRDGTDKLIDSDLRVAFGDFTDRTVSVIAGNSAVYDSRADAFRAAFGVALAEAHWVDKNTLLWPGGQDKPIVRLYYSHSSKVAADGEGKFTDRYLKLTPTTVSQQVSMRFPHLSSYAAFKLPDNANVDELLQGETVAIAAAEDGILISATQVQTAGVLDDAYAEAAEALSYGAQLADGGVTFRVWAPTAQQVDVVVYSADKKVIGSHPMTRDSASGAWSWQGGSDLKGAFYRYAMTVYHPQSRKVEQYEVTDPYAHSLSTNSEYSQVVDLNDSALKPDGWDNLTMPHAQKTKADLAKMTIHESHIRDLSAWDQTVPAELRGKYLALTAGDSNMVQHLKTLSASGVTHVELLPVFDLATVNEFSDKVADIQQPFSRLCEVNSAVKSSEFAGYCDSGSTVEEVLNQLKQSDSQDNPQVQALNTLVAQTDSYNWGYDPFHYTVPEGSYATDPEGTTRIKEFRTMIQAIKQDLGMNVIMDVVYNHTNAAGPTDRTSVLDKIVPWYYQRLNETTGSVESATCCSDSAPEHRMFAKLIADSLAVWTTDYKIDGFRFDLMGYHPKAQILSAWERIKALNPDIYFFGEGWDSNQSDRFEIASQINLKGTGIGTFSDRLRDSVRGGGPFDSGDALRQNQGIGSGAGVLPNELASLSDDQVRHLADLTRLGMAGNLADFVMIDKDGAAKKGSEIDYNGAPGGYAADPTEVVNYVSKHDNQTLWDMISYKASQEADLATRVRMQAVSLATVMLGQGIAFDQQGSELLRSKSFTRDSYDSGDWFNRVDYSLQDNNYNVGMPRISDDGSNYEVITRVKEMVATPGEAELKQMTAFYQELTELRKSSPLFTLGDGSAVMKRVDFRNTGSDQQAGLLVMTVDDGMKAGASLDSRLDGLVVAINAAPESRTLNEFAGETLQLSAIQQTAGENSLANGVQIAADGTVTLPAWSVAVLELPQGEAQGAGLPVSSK
Procedure: as §2, §3

[16] = male rats, 100 mg/kg, 300 mg/kg and 1000 mg/kg every day for 2 weeks

T2 sequence (P07683 26-604): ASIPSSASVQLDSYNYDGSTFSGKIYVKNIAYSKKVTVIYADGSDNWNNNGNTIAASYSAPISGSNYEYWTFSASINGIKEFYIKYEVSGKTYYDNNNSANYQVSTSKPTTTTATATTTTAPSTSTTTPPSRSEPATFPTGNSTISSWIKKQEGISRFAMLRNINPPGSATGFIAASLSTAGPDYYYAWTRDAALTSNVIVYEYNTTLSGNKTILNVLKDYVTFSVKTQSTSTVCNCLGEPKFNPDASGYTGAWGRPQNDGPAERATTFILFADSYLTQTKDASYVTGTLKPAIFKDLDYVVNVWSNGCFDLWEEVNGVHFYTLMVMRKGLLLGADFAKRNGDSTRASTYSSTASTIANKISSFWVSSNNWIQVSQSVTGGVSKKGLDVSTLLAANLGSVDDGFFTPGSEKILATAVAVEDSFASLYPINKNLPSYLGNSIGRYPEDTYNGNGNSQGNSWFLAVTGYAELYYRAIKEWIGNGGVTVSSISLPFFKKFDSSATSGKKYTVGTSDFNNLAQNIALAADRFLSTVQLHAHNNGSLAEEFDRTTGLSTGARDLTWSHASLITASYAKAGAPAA

Compound: α-cyclodextrin [α-CyD]
- water-solubilities ([1]; water): about 15%

Compound: 6-O-cyclomaltoheptaosyl-(6→1)-α-D-glucosyl-(4→1)-O-α-D-glucuronic acid [β-CyD-G2-COOH]
- Pathological and histological examination [2, 16]: no serious findings such as necrosis
- death [2, 16]: No rats died
- general appearance, diet intake amount, body weight, urine sediments, hematological examination [2, 16]: No abnormality was observed

Compound: COC1C(OC(=O)NC(=O)CCl)CCC2(CO2)C1C1(C)OC1CC=C(C)C (centres unmarked) [Antineoplastic agent alone]
- solubility [3]: 1800 µg/mL
- solubility [4]: 1800 µg/mL
- solubility [5]: 2500 µg/mL

Compound: sodium 6-O-cyclomaltoheptaosyl-(6→1)-α-D-glucosyl-(4→1)-O-α-D-glucuronate [β-CyD-G2-COONa]
- hemolytic effect (hemolytic ratio vs cyclodextrin concentration, Figure 1) [6]: much less hemolytic effect than that of β-CyD
- Half-life in 0.1N HCl solution at 60°C: 8 h
- stability to the enzymatic treatment with β-glucuronidase [7]: more stable
- stability to the enzymatic treatment with glucoamylase [8]: more stable
- HC50 [9]: 11 mM
- solubility [10]: > 200 g/100 ml
- hemolytic effect (hemolytic ratio vs cyclodextrin concentration, Figure 2) [11]: much less hemolytic effect than that of β-CyD, β-CyD-G1 or β-CyD-G2

Compound: OC[C@H]1O[C@H](O[C@H]2[C@H](O)[C@@H](O)[C@@H](OC[C@H]3O[C@@H]4O[C@H]5[C@H](O)[C@@H](O)[C@@H](O[C@H]6[C@H](O)[C@@H](O)[C@@H](O[C@H]7[C@H](O)[C@@H](O)[C@@H](O[C@H]8[C@H](O)[C@@H](O)[C@@H](O[C@H]9[C@H](O)[C@@H](O)[C@@H](O[C@H]%10[C@H](O)[C@@H](O)[C@@H](O[C@H]3[C@H](O)[C@H]4O)O[C@@H]%10CO)O[C@@H]9CO)O[C@@H]8CO)O[C@@H]7CO)O[C@@H]6CO)O[C@@H]5CO)O[C@@H]2CO)[C@H](O)[C@@H](O)[C@@H]1O [β-CyD-G2, 6-O-α-maltosyl-β-cyclodextrin]
- Pathological and histological examination ([2]; rats, every day for 2 weeks, 300 mg/kg and 1000 mg/kg groups): renal tubule epithelium vacuolation and necrosis
- Urine examination ([2]; rats, every day for 2 weeks, 1000 mg/kg group): occult blood and an increase in LDH and NAG
- observed signs (general appearance) ([2]; rats, every day for 2 weeks, groups of 300 mg/kg and 1000 mg/kg): Auricle flush and peripheral swelling in the extremities
- HC50 [12]: 8 mM
- water-solubility relative to that of β-cyclodextrin ([1]; stated as known): several tens of times that of β-cyclodextrin
- half-life [13]: 300 min
- solubility [14]: 1500 mg/mL (≈ 1030 mM)
- metabolised at 2 h, 10000 µM [15]: ~60%

Compound: OC[C@H]1O[C@@H]2O[C@H]3[C@H](O)[C@@H](O)[C@@H](O[C@H]4[C@H](O)[C@@H](O)[C@@H](O[C@H]5[C@H](O)[C@@H](O)[C@@H](O[C@H]6[C@H](O)[C@@H](O)[C@@H](O[C@H]7[C@H](O)[C@@H](O)[C@@H](O[C@H]8[C@H](O)[C@@H](O)[C@@H](O[C@H]1[C@H](O)[C@H]2O)O[C@@H]8CO)O[C@@H]7CO)O[C@@H]6CO)O[C@@H]5CO)O[C@@H]4CO)O[C@@H]3CO [β-CyD, β-cyclodextrin]
- HC50 [12]: 4 mM
